From ChEMBL document CHEMBL4627246, “Pyroglutamide-Based P2X7 Receptor Antagonists Targeting Inflammatory Bowel Disease” (J Med Chem, 2020)

Assays:
Assay type in all cases: cell-based
SF-539 = test: Cytotoxicity against human SF539 cells assessed as effect on cell growth at 10 uM incubated for 48 hrs by sulforhodamine B assay; settings: sf-539, 48 h
HCC 2998 = test: Cytotoxicity against human HCC2998 cells assessed as effect on cell growth at 10 uM incubated for 48 hrs by sulforhodamine B assay; settings: hcc 2998, 48 h
BT-549 = test: Cytotoxicity against human BT549 cells assessed as effect on cell growth at 10 uM incubated for 48 hrs by sulforhodamine B assay; settings: bt-549, 48 h
HOP-92 = test: Cytotoxicity against human HOP92 cells assessed as effect on cell growth at 10 uM incubated for 48 hrs by sulforhodamine B assay; settings: hop-92, 48 h
A498 = test: Cytotoxicity against human A498 cells assessed as effect on cell growth at 10 uM incubated for 48 hrs by sulforhodamine B assay; settings: a498, 48 h
NCI-H23 = test: Cytotoxicity against human NCI-H23 cells assessed as effect on cell growth at 10 uM incubated for 48 hrs by sulforhodamine B assay; settings: nci-h23, 48 h
SF-268 = test: Cytotoxicity against human SF268 cells assessed as effect on cell growth at 10 uM incubated for 48 hrs by sulforhodamine B assay; settings: sf-268, 48 h
SR = test: Cytotoxicity against human SR cells assessed as effect on cell growth at 10 uM incubated for 48 hrs by sulforhodamine B assay
SK-MEL-28 = test: Cytotoxicity against human SK-MEL-28 cells assessed as effect on cell growth at 10 uM incubated for 48 hrs by sulforhodamine B assay; settings: sk-mel-28, 48 h
NCI-H322M = test: Cytotoxicity against human NCI-H322M cells assessed as effect on cell growth at 10 uM incubated for 48 hrs by sulforhodamine B assay
NCI-H226 = test: Cytotoxicity against human NCI-H226 cells assessed as effect on cell growth at 10 uM incubated for 48 hrs by sulforhodamine B assay; settings: nci-h226, 48 h
OVCAR-5 = test: Cytotoxicity against human OVCAR5 cells assessed as effect on cell growth at 10 uM incubated for 48 hrs by sulforhodamine B assay; settings: ovcar-5, 48 h
OVCAR-8 = test: Cytotoxicity against human OVCAR8 cells assessed as effect on cell growth at 10 uM incubated for 48 hrs by sulforhodamine B assay; settings: ovcar-8, 48 h
COLO 205 = test: Cytotoxicity against human COLO205 cells assessed as effect on cell growth at 10 uM incubated for 48 hrs by sulforhodamine B assay; settings: colo 205, 48 h
A549 = test: Cytotoxicity against human A549/ATCC cells assessed as effect on cell growth at 10 uM incubated for 48 hrs by sulforhodamine B assay; settings: a549, 48 h
SN12C = test: Cytotoxicity against human SN12C cells assessed as effect on cell growth at 10 uM incubated for 48 hrs by sulforhodamine B assay
MDA-MB-231 = test: Cytotoxicity against human MDA-MB-231 cells assessed as effect on cell growth at 10 uM incubated for 48 hrs by sulforhodamine B assay; settings: mda-mb-231, 48 h
786-0 = test: Cytotoxicity against human 786-0 cells assessed as effect on cell growth at 10 uM incubated for 48 hrs by sulforhodamine B assay; settings: 786-0, 48 h
SW-620 = test: Cytotoxicity against human SW620 cells assessed as effect on cell growth at 10 uM incubated for 48 hrs by sulforhodamine B assay; settings: sw-620, 48 h
HT-29 = test: Cytotoxicity against human HT-29 cells assessed as effect on cell growth at 10 uM incubated for 48 hrs by sulforhodamine B assay; settings: ht-29, 48 h

Measured: Activity

O=C(NCc1ccc(Cl)cc1Cl)[C@@H]1CCC(=O)N1c1ccc(Cl)cc1
Non-Toxic: all assays above

O=C(NCc1ccc(Cl)cc1Cl)[C@@H]1CCC(=O)N1Cc1ccc(Cl)cc1
Non-Toxic: all assays above

O=C(NCc1ccc(Cl)cc1Cl)[C@@H]1CCC(=O)N1c1ccccc1
Non-Toxic: all assays above

O=C(NCc1ccc(Cl)cc1Cl)[C@@H]1CCC(=O)N1c1cscn1
Non-Toxic: all assays above

O=C(NCc1ccc(Cl)cc1Cl)[C@@H]1CCC(=O)N1c1cccs1
Non-Toxic: all assays above

O=C1N[C@H](C(=O)NCc2ccc(Cl)cc2Cl)C/C1=C\N1CCOCC1
Non-Toxic: all assays above

COc1ccc(N2C(=O)CC[C@H]2C(=O)NCc2ccc(Cl)cc2Cl)cc1
Non-Toxic: all assays above

CN1CCN(/C=C2\C[C@@H](C(=O)NCc3ccc(Cl)cc3Cl)N(c3cccs3)C2=O)CC1
Non-Toxic: all assays above

COc1ccc(NC(=O)[C@@H]2C/C(=C\N(C)C)C(=O)N2)cc1
Non-Toxic: all assays above
